IC50 data for one compound are collected here from US20230167114A1, “MACROCYCLIC JAK INHIBITOR AND USE THEREOF” (Biopolar Hongye (Guangdong) Pharmaceutical Co., Ltd., priority 2020, published 2023).

Common to all, as to format: biochemical
The target of one experiment is TYK2 (Homo sapiens, UniProt P29597). As to the kind of experiment: JAK kinase activity, homogeneous time-resolved fluorescence (TYK2 reaction system). The settings on record: ATP 2 μM, TYK2 protein 0.2 ng/μL; read-out: TYK 2 activity. An outline of the steps: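 Homogeneous time-resolved fluorescence kinase assay with 0.2 ng/μL TYK2 and 2 μM ATP in 50 mM Hepes pH 7.0, 5 mM MgCl2, 1 mM DTT and 0.01% BSA, reacted for 1 h. Phospho-substrate antibody with EDTA-containing detection buffer was added, and the 665/615 nm emission ratio was read. IC50 came from a Hill-slope logistic fit.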

Another experiment has as its target JAK2 (Homo sapiens, UniProt O60674). As to the kind of experiment: JAK kinase activity, homogeneous time-resolved fluorescence (JAK2 reaction system). The settings on record: ATP 2 μM, JAK2 protein 0.01 ng/μL. An outline of the steps:
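HTRF reaction with 0.01 ng/µL JAK2 and 2 µM ATP, run 1 h in 50 mM HEPES pH 7.0, 5 mM MgCl2, 1 mM DTT, 0.01% BSA. It was stopped with EDTA detection buffer containing anti-phosphosubstrate antibody and XL-615. The 665/615 ratio was read against no-enzyme and no-compound wells, with IC50 from a Hill-slope fit.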

For another experiment, the target named is JAK1 (Homo sapiens, UniProt P23458). As to the kind of experiment: JAK kinase activity, homogeneous time-resolved fluorescence (JAK1 reaction system). The settings on record: ATP 2 μM, JAK1 protein 0.2 ng/μL; read-out: JAK 1 activity. An outline of the steps: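 HTRF readout (665/615 nm ratio) with 0.2 ng/μL JAK1 and 2 μM ATP in 50 mM Hepes pH 7.0, 5 mM MgCl2, 1 mM DTT and 0.01% BSA. The reaction ran 1 h, then anti-phosphosubstrate antibody and EDTA were added. IC50 came from a Hill-slope logistic fit.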

A further experiment has as its target T1, JAK3 (Homo sapiens, UniProt P52333).
T1 sequence (P52333 1-1124): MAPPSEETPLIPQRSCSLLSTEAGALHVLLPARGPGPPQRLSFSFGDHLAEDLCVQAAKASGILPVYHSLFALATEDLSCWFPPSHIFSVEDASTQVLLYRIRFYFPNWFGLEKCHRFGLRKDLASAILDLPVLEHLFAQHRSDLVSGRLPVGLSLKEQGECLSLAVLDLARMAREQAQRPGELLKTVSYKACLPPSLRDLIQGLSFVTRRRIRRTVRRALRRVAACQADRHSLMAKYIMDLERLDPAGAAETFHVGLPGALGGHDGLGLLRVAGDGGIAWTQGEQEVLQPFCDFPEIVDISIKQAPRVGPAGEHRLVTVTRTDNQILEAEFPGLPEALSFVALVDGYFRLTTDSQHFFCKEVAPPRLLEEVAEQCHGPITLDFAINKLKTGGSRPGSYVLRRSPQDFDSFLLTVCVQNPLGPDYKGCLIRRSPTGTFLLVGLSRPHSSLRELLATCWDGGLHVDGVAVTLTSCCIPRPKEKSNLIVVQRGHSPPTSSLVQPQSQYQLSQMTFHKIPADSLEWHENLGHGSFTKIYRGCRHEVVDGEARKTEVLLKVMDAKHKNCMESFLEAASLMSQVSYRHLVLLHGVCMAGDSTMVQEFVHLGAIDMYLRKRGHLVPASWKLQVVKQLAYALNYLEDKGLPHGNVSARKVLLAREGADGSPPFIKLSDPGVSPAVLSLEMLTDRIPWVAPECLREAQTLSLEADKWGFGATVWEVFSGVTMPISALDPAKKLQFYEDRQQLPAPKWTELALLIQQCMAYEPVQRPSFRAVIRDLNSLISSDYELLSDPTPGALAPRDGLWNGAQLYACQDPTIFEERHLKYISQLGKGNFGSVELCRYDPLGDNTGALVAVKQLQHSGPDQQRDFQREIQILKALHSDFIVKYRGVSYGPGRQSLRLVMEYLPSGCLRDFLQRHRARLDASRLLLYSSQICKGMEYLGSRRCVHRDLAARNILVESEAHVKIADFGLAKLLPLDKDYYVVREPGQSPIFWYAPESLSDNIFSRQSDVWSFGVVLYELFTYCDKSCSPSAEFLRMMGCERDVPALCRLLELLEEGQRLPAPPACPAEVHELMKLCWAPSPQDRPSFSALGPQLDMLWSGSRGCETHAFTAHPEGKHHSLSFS
Kind of experiment: JAK kinase activity, homogeneous time-resolved fluorescence (JAK3 reaction system). The settings on record: ATP 2 μM, JAK3 protein 0.04 ng/μL; read-out: JAK 3 activity. The gist of the method:
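JAK3 (0.04 ng/μL) was reacted 1 h with substrate, 2 μM ATP and compound in 50 mM Hepes pH 7.0, 5 mM MgCl2, 1 mM DTT, 0.01% BSA. Phospho-specific antibody and XL-615 with EDTA were added, and the 665/615 nm ratio was referenced to no-enzyme and no-compound wells. IC50 came from a Hill-equation fit.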

Sequence of JAK1 (P23458 whole entry): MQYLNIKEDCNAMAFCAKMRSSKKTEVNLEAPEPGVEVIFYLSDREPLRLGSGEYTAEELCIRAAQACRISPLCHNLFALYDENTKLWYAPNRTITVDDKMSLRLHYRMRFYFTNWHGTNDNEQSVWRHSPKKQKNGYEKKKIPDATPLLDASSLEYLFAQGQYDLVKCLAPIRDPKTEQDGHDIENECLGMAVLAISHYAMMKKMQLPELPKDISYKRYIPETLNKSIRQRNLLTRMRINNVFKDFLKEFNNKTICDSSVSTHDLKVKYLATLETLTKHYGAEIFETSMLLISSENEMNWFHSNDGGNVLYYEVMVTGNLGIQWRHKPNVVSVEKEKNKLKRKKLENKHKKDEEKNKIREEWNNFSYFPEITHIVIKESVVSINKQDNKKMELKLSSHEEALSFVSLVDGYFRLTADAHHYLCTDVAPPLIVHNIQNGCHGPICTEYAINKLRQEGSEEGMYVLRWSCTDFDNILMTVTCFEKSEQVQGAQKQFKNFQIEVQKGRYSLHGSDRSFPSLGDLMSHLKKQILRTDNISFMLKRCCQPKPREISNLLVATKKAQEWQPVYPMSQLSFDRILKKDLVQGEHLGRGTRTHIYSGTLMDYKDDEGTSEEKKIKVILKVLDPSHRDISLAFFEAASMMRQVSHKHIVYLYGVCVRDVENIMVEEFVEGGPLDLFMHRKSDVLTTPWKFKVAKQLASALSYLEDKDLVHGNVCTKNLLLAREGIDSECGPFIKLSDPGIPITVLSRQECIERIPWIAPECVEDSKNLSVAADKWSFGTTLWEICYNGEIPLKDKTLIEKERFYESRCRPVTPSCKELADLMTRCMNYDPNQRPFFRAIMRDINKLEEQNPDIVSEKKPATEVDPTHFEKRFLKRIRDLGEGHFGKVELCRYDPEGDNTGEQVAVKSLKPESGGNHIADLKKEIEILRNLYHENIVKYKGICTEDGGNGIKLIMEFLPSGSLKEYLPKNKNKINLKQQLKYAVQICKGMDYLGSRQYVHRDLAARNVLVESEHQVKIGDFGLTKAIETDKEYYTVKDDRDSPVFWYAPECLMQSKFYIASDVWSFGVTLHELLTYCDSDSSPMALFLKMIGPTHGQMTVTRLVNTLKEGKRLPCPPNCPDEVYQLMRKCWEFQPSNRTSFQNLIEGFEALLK
Sequence of TYK2 (P29597 whole entry): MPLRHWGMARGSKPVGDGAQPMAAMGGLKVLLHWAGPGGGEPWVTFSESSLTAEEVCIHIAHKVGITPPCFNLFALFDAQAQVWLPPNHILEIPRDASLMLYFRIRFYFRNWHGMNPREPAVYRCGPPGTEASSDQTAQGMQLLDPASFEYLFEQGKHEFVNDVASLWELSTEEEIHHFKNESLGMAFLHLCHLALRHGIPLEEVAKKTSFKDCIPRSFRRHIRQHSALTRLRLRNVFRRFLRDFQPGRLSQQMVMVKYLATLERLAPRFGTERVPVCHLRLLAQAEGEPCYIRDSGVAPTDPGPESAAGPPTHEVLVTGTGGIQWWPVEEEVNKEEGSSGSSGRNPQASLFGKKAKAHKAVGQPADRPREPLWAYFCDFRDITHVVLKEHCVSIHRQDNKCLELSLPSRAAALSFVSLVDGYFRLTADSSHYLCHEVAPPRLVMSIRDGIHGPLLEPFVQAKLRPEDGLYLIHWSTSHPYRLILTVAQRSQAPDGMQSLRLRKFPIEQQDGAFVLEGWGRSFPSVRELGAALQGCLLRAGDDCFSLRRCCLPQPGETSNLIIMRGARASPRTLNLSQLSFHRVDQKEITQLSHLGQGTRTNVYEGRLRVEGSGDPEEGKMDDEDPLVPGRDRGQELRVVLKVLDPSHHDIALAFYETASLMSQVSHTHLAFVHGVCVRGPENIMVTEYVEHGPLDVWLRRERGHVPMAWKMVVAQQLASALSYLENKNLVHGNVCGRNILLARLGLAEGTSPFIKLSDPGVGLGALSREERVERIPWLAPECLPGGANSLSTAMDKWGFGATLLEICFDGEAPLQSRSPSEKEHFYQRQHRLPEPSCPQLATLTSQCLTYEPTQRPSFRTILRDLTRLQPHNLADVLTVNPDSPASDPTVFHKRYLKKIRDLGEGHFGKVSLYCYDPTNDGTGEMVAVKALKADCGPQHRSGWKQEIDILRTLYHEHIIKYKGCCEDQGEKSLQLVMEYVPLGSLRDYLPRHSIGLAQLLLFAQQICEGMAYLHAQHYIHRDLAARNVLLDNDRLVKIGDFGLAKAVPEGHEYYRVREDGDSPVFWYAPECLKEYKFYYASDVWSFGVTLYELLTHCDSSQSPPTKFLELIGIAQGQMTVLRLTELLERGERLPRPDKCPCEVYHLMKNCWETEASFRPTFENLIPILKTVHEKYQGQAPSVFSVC
Sequence of JAK2 (O60674 whole entry): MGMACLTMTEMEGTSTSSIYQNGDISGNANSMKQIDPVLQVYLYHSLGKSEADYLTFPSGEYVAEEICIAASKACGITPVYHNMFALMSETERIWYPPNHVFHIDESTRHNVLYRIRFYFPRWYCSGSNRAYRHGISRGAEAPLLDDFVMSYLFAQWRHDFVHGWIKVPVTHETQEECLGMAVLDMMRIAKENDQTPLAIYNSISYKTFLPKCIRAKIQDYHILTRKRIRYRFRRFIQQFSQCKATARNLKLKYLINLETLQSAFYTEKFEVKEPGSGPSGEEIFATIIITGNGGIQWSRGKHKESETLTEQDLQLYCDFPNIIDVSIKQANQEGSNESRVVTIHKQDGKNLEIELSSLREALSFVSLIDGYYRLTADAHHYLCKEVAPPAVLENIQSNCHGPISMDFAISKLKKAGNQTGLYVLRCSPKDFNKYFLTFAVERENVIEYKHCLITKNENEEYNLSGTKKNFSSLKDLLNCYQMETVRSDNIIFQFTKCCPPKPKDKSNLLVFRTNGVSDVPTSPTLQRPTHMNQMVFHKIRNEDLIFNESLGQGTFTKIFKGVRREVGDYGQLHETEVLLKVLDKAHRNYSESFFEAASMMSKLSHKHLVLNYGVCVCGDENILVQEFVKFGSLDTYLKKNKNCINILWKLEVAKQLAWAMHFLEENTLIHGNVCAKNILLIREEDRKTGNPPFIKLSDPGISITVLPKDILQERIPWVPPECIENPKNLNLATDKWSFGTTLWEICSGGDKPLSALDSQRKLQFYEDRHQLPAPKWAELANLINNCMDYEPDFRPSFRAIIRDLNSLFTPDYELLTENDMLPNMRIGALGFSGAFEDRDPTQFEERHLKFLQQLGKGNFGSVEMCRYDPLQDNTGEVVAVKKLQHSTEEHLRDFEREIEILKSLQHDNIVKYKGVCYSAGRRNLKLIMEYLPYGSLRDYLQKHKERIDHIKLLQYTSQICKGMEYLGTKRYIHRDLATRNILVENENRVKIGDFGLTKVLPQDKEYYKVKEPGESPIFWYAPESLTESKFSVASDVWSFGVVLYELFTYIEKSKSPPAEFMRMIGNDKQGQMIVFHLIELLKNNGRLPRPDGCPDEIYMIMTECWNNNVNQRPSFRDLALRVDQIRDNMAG

Turning to `Cc1cnc2nc1Nc1cccc(c1)CCCCNC(=O)c1ccc(cc1)-c1cnc(F)c(c1)N2` [Compound 18, 2^6-fluoro-4^5-methyl-3,5,11-triaza-4(2,4)-pyrimidina-2(3,5)-pyridina-1(1,4),6(1,3)-dibenzenacyclododecaphan-12-one], the IC50 was 11 to 100 nM at TYK2, below 10 nM at JAK2, below 10 nM at JAK1 and below 10 nM on JAK3.
